Patent US20220117920A1, “N-Aryl Benzenesulfonamides as Protonophores for the Treatment of Cancers, Metabolic Diseases and Traumatic Brain Injury” (University of Kentucky Research Foundation, priority 2019, published 2022)

What was measured:
[1] = system: Wnt signaling; test: Wnt reporter assay, stable HEK293T cell line containing TOPFlash reporter, LiCl-activated; type: cell-based, human
Description: (§1) To identify novel Wnt regulators by high throughput screening, a stable HEK293T cell line containing the TOPFlash reporter was established. To identify Wnt inhibitors that targeted molecular events downstream of β-catenin, we treated these cells with lithium chloride to inhibit GSK3 and to stabilize β-catenin. […] We also validated the results by transient transfection of Super 8× TOPFlash or 8× FOPFlash into HEK293T cells. […] Since the results from the stable and transient transfection are compatible, we used stable cell lines for all of the other experiments.
(§2) Reporter assay. Wnt reporter assay and cell staining assay have been described previously. We subcloned Super 8×TOPFlash (provided by Professor Randall Moon, University of Washington) into the pGL4.83 [hRlucP/Puro] Vector and transfected it into HEK293T cells. A stable HEK293T cell line containing the TOPFlash reporter was established using puromycin selection. To screen Wnt inhibitors that block the downstream signaling transduction pathway of β-catenin, we treated the reporter cells with 25 mM LiCl to stabilize β-catenin and activate Wnt signaling. The potential Wnt inhibitors identified from screening were validated by transfecting TOPFlash or FOPFlash plus control renilla reporters into HEK293T cells, and then treating the cells with DMSO or testing compounds in DMSO solution. The Wnt signaling was activated by LiCl or Wnt3A treatment.

[2] = system: AMPK; test: Western blot of AMPK (T172) and ACC (S79) phosphorylation in CRC cells; type: cell-based, human; conditions: for AMPK activation: concentration not given; for ACC (S79 phosphorylation) / AMPK activity (T172 phosphorylation): 3 μM
Protocol: (§3) Biochemistry. Western blotting: Cells were lysed in the appropriate volume of lysis buffer: 50 mM HEPES, 100 mM NaCl, 2 mM EDTA, 1% (v/v) glycerol, 50 mM NaF, 1 mM Na3VO4, 1% (v/v) Triton X-100, with protease inhibitors. The following antibodies were used: AMPK (Cell Signaling, 2532, Cell Signaling Technologies, Danver, Mass., USA), pAMPK (Cell Signaling, 2535), ACC (Cell Signaling, 3676), pACC (Cell Signaling, 11818), Actin (Sigma, A1978). Antibodies for Axin 2, c-Myc and Cyclin D1 have been described previously. ATP analysis: Cells growing in 12-well plates were treated with DMSO or inhibitors in DMSO solution and lysed by adding 1 mL boiling doubly distilled water. Supernatants were analyzed by luminescence using ATP Determination Kit (Invitrogen, A22066; Thermo Fisher Scientific, Waltham, Mass., USA).

[3] = system: LS174T cells; test: ATP analysis (luminescence) in LS174T cells; type: cell-based, human; conditions: 10 mM
Protocol: as §3

[4] = system: DLD-1 cells; test: Seahorse uncoupling assay (OCR) in DLD-1 cells; type: cell-based, human; conditions: for oxidative phosphorylation: data not shown
[5] = system: purified mitochondria from mouse liver; test: Uncoupling assay (OCR) using purified mitochondria from mouse livers; type: biochemical
Protocol: All the steps were carried out at 4° C. or on ice. After mice were euthanized with CO2 followed by rapid decapitation, whole liver was quickly dissected out on a cold block and homogenized using a Teflon-glass dounce homogenizer containing isolation buffer (215 mM mannitol, 75 mM sucrose, 0.1% BSA, 20 mM HEPES, 1 mM EGTA, adjusted to pH 7.2 with KOH). The homogenate was transferred to a 2 mL-microcentrifuge tube and spun at 1,300×g for 3 min. The supernatant was transferred to a fresh 2 mL-microcentrifuge tube and spun at 13,000×g for 10 min. The supernatant was discarded, and the crude mitochondrial pellet was resuspended in a 1.5 mL-microcentrifuge tubes and pelleted again at 10,000×g for 10 min. The supernatant was discarded, and the mitochondrial pellets were resuspended in isolation buffer to obtain an approximate concentration ≥10 mg/mL of mitochondria. The absolute protein concentration was determined using a bicinchoninic acid (BCA) protein assay kit (Pierce, Cat #23,227) by recording absorbance at 560 nm on a Biotek Synergy HT plate reader (Winooski, Vt., USA).
Mitochondrial Bioenergetics Measurements. Mitochondrial bioenergetic measurements were carried out using a Seahorse XFe96 Extracellular Flux Analyzer (Agilent Technologies, Santa Clara, Calif., USA) to measure oxygen consumption rate (OCR) during various states of respiration. The OCR were measured in the presence of different substrates, inhibitors and uncouplers of the electron transport chain using previous methods with slight modifications. The stocks used for the assays were 500 mM pyruvate, 250 mM malate, and 30 mM adenosine diphosphate (ADP), and 1 M succinate (pH for all was adjusted to 7.2). […] Stock solutions of FH535, Y3, FH535-M, and Y3-M were prepared at 5 mM in 100% DMSO. As per the instructions from XFe96 Extracellular Flux kit, the sensor cartridge was hydrated with water and kept at 37° C. overnight before the experiment. One hour before the assay was conducted, water was removed from assay plates and XF calibrant was added before re-incubation. The injection ports A to D of the sensor cartridge were loaded with 25 μL of different combinations of the above substrates/inhibitors/uncouplers as follows. Before loading, the stocks were diluted appropriately in the respiration buffer (RB) (125 mM KCl, 0.1% BSA, 20 mM HEPES, 2 mM MgCl2, and 2.5 mM KH2PO4; pH 7.2) to get the final concentrations in the respiration chamber of 5 μM pyruvate, 2.5 μM malate, 10 μM of succinate and 1 μM ADP (via Port A), 1 μM oligomycin A (via Port B), 4 μM FCCP or 5 μM/1 μM FH535 or 5 μM/1 μM Y3 or 5 μM/1 μM FH535-M or 5 μM/1 μM Y3-M (via Port C) and 0.1 μM antimycin A (via Port D) starting with the initial volume of 175 μL RB in the chamber and diluting it to 9×, 10×, 11× and 12× with every injection through ports A to D, respectively. Once loaded, the sensor cartridge was placed into the Seahorse XFe96 Flux Analyzer for automated calibration. Seahorse Standard XFe96 assay plates were used for loading mitochondria. Initially total mitochondria were diluted to 6 μg/30 μL in RB and 30 μL was loaded in each well resulting in 6 μg mitochondria/well. The assay plates were centrifuged at 3,000 rpm for 4 min at 4° C. to adhere liver mitochondria at the bottom of the wells. After centrifugation, 145 μL RB (pre-incubated to 37° C.) was added without disturbing the mitochondrial layer to obtain a final volume of 175 μL per well. […]

[6] = system: mitochondrial ATP production; test: Agilent Seahorse XF Real-Time ATP Rate Assay; type: cell-based, human
Protocol: Seahorse assay. Approximately 3×10^4 cells were seeded in XF96 Cell Culture microplate (80 μL of 3.75×10^5 cells/mL) for all experiments. On the next day, cell culture media were replaced with either Seahorse XF modified media with 25 mM glucose and 1 mM pyruvate. After media exchange, cells were treated with 1 μM of oligomycin A, 1.0 μM FCCP and mixture of 1.0 μM of rotenone and 1.0 μM of antimycin A in standard mitochondrial stress test conditions. To determine the uncoupler effects, FCCP was replaced with an equal volume of DMSO, or a compound to be tested in DMSO solution. ATP production rate was analyzed using Agilent Seahorse XF Real-Time ATP Rate Assay.

[7] = system: Wnt signaling; test: Transient transfection of Super 8× TOPFlash or 8× FOPFlash into HEK293T cells; type: cell-based, human
Description: as §1
as §2, with “The Wnt signaling was activated by LiCl or Wnt3A treatment.” left out

[8] = system: LS174T and DLD-1 CRC cells; test: Cell proliferation assay in colon cancer cells; type: cell-based, human
Protocol: Cell culture. LS174T colon cancer cells were cultured in EMEM (ATCC, 30-2003) containing 10% (v/v) Fetal Bovine Serum (Sigma F0926, Sigma Aldrich Corp., St. Louis, Mo., USA). The DLD-1, SW480 and SW620 colon cancer cells were cultured in DMEM (Sigma D6429) containing 10% (v/v) Fetal Bovine Serum (Sigma, F0926). For proliferation assays, cells (3.5×10^4 cells per well) were split into 12-well plates. After 24 h, 1 μL of each compound in DMSO solution were added to each well. DMSO was used as a control. Each experiment was done in triplicate. Cell viability and number were analyzed using the Vi-Cell XR Cell Viability Analyzer (Beckman Coulter, Indianapolis, Ind., USA).

[9] = system: Wnt target genes; test: Western blot of Wnt signaling components and downstream targets in CRC cell lines; type: cell-based, human; conditions: three CRC cell lines
Protocol: as §3

[10] = system: mitochondrial membrane potential; test: Mitochondria membrane potential assay (TMRM staining); type: cell-based, human; conditions: FTU-11 at 3 μM
Protocol: Mitochondria Membrane potential assay: DLD-1 and LS174T cells were plated onto 24-well plates and maintained in DMEM (DLD-1) and RPMI1640 (LS174T) with 10% (v/v) (DLD-1) and 5% (v/v) (LS174T) serum for one day. The cells were treated with DMSO or a testing compound in DMSO solution for 2 h, followed by staining with 100 nM tetramethylrhodamine methyl ester perchlorate (TMRM) (Cayman Chemical Company, MI, USA) for 15 min. Cells were rinsed once with PBS and then observed under fluorescence microscopy at 568 nm.

O=CC[C@@H](O)[C@H](O)[C@H](O)CO [2-DG, 2-deoxy-D-glucose]
inhibition of Wnt signaling ([1]; concentration not given): inhibited Wnt signaling
AMPK activation [2]: activated AMPK
ATP levels [3]: reduced ATP levels

N#Cc1c(O)c2c(-c3ccc(-c4ccccc4O)cc3)csc2[nH]c1=O [A769662, 4-hydroxy-3-(2′-hydroxy-[1,1′-biphenyl]-4-yl)-6-oxo-6,7-dihydrothieno[2,3-b]pyridine-5-carbonitrile, reference compound]
inhibition of Wnt signaling ([1]; 10 μM): did not inhibit Wnt signaling
AMPK activity (ACC S79 phosphorylation) ([2]; without affecting AMPK phosphorylation): Increased AMPK activity

c1cc(-c2cnn3cc(-c4ccc(OCCN5CCOCC5)cc4)cnc23)ccn1 [Compound C, 4-(2-(4-(3-(pyridin-4-yl)pyrazolo[1,5-a]pyrimidin-6-yl)phenoxy)ethyl)morpholine, reference compound]
rescue of Wnt signaling inhibited by FTU-11 (3 μM) and FDN-4E (3 μM) ([1]; 5 μM): no effect
urea-induced AMPK phosphorylation and ACC phosphorylation ([2]; 5 μM): decreased

N#CC(C#N)=NNc1ccc(OC(F)(F)F)cc1 [FCCP, N-(4-(trifluoromethoxy)phenyl)carbonohydrazonoyl dicyanide, reference compound]
uncoupling: OCR inhibited by oligomycin ([4]; 1 μM, control): increased OCR inhibited by oligomycin
inhibition of Wnt signaling ([1]; concentration not given): inhibited Wnt signaling
AMPK activation [2]: strongly activated AMPK
uncoupling: OCR blocked by oligomycin ([5]; control, 1 μM): rescued
rate of ATP production in mitochondria ([6]; 1 μM, control): decreased the rates of ATP production in mitochondria

O=C(Nc1ccc(C(F)(F)F)cc1)Nc1cc(F)c(F)c(F)c1 [FDN-4E, 1-(4-(trifluoromethyl)phenyl)-3-(3,4,5-trifluorophenyl)urea]
TOPFlash and FOPFlash activity [7]: inhibited TOPFlash but not FOPFlash activity
inhibition of Wnt signaling ([1]; concentration not given): inhibited Wnt signaling
proliferation of colon cancer cells [8]: inhibited the proliferation of colon cancer cells at sub-micromolar concentrations
Wnt target genes [9]: inhibited Wnt target genes
ACC (S79 phosphorylation) [2]: inhibited ACC
AMPK activity (T172 phosphorylation) [2]: increased AMPK activity

Cc1cc([N+](=O)[O-])ccc1N(C)S(=O)(=O)c1cc(Cl)ccc1Cl [FH535-M, 2,5-dichloro-N-methyl-N-(2-methyl-4-nitrophenyl)benzenesulfonamide]
uncoupling: OCR inhibited by oligomycin ([4]; testing compound 3 μM): no longer functioned as a mitochondrial uncoupler
inhibition of Wnt signaling ([1]; 3 μM): lost activities
AMPK activity (T172 phosphorylation) [2]: lost activities
uncoupling: OCR blocked by oligomycin ([5]; 5 μM/1 μM): inactive

O=C(Nc1nnc(C(F)(F)F)s1)NC(CC(F)(F)F)(C(F)(F)F)C(F)(F)F [FTU-11, 1-(1,1,1,4,4,4-hexafluoro-2-(trifluoromethyl)butan-2-yl)-3-(5-(trifluoromethyl)-1,3,4-thiadiazol-2-yl)urea]
uncoupling: OCR inhibited by oligomycin ([4]; testing compound 3 μM): increased OCR inhibited by oligomycin
TOPFlash and FOPFlash activity [7]: inhibited TOPFlash but not FOPFlash activity
concentration at which Wnt signaling was inhibited ([1]; 96-well assay using stable cell line): 0.5 mM
proliferation of colon cancer cells [8]: inhibited the proliferation of colon cancer cells at sub-micromolar concentrations
Wnt target genes [9]: inhibited Wnt target genes
ACC (S79 phosphorylation) [2]: inhibited ACC
AMPK activity (T172 phosphorylation) [2]: increased AMPK activity
AMPK activation [2]: equal in potency to FDN-4E
rate of ATP production in mitochondria ([6]; 3 μM): decreased the rates of ATP production in mitochondria
mitochondrial membrane potential [10]: reduced mitochondrial membrane potential
mitochondrial membrane potential ([10]; listed as FTC-11): significantly reduced the membrane potential of mitochondria

O=C1[C@H](Cc2ccc(O)cc2)N2C(=O)CCN(C(=O)NCc3ccccc3)[C@H]2CN1Cc1cccc2ccccc12 [ICG-001, (6S,9aS)—N-benzyl-6-(4-hydroxybenzyl)-8-(naphthalen-1-ylmethyl)-4,7-dioxohexahydro-2H-pyrazino[1,2-c]pyrimidine-1(6H)-carboxamide, reference compound]
inhibition of Wnt signaling ([1]; concentration not given): only inhibited Wnt signaling
AMPK activation [2]: no effect on AMPK

CN(c1ccc([N+](=O)[O-])c2ccccc12)S(=O)(=O)c1cc(Cl)ccc1Cl [Y3-M, 2,5-dichloro-N-methyl-N-(4-nitronaphthalen-1-yl)benzenesulfonamide]
uncoupling: OCR inhibited by oligomycin ([4]; testing compound 3 μM): failed as a mitochondrial uncoupler
inhibition of Wnt signaling ([1]; 3 μM): lost activities
AMPK activity (T172 phosphorylation) [2]: lost activities
uncoupling: OCR blocked by oligomycin ([5]; 5 μM/1 μM): inactive

CC[C@H]1/C=C/C=C/C[C@@H](C)[C@H](O)[C@@](C)(O)C(=O)[C@@H](C)[C@H](O)[C@@H](C)C(=O)[C@@H](C)[C@H](O)[C@@H](C)/C=C/C(=O)O[C@@H]2[C@H](C)[C@H](CC1)O[C@]1(CC[C@H](C)[C@H](C[C@@H](C)O)O1)[C@H]2C [oligomycin, reference compound]
oxidative phosphorylation [4]: inhibited oxidative phosphorylation
inhibition of Wnt signaling ([1]; concentration not given): inhibited Wnt signaling
AMPK activation [2]: activated AMPK

C=C(C)[C@H]1Cc2c(ccc3c2O[C@@H]2COc4cc(OC)c(OC)cc4[C@@H]2C3=O)O1 [rotenone, reference compound]
oxidative phosphorylation [4]: inhibited oxidative phosphorylation
inhibition of Wnt signaling ([1]; concentration not given): inhibited Wnt signaling
AMPK activation [2]: activated AMPK

antimycin [reference compound]
oxidative phosphorylation [4]: inhibited oxidative phosphorylation
inhibition of Wnt signaling ([1]; concentration not given): inhibited Wnt signaling
AMPK activation [2]: activated AMPK
